Molecules are shown by their SMILES. Several values for one entry are separate records, joined by “and”; a condition that tells them apart may be missing. Equal entries are not always repeated. Where two headings read alike, the source gives them in different places.

In the experiment the target is T1, METTL3/METTL14 (Homo sapiens, UniProt Q86U44).
T1 construct: made in house; host or cells: Sf9 insect cells (baculovirus)
Kind of experiment: METTL3 enzymatic inhibition assay by homogeneous time-resolved fluorescence (HTRF). It counts as biochemical. To be noted: for IC50: HTRF assay; for fold improvement in affinity (IC50) vs compound 4: relative to reference compound 4; for S/R Ratio: ratio of IC50 of S isomer to R isomer. Here is the method: Compound potencies were evaluated by using a previously reported METTL3 inhibition assay. […] Tested compounds that inhibit METTL3 decrease the m^6A level and thus reduce the HTRF signal. The biochemical assay was performed, as described previously.[19] The IC50 values derived from fitting a dose–response curve to the data using nonlinear regression. The IC50 values are given as an average of at least two independent measurements for each compound in the text.

Setting [1] is: racemic mixture, read-out: IC50.
The mark [2] stands for this setting: R isomer, read-out: IC50 (µM) R.
Where [3] appears, read: S isomer, read-out: IC50 (µM) S.

T1 sequence (Q86U44 whole entry): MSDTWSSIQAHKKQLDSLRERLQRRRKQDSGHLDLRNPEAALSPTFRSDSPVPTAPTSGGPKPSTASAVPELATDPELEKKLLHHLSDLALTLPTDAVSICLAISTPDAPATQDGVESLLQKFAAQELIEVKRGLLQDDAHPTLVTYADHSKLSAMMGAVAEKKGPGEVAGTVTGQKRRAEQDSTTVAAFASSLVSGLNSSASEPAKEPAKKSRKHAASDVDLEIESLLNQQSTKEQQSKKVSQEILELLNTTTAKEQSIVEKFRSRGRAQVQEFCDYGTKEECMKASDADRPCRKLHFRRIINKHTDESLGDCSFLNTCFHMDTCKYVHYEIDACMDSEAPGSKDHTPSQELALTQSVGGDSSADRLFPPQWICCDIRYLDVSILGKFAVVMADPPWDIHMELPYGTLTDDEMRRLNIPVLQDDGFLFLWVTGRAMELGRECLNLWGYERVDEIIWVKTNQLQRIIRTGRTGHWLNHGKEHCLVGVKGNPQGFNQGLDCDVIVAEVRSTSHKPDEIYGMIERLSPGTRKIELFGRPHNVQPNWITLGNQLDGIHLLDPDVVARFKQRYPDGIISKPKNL
T1 sequence (Q9HCE5 whole entry partner): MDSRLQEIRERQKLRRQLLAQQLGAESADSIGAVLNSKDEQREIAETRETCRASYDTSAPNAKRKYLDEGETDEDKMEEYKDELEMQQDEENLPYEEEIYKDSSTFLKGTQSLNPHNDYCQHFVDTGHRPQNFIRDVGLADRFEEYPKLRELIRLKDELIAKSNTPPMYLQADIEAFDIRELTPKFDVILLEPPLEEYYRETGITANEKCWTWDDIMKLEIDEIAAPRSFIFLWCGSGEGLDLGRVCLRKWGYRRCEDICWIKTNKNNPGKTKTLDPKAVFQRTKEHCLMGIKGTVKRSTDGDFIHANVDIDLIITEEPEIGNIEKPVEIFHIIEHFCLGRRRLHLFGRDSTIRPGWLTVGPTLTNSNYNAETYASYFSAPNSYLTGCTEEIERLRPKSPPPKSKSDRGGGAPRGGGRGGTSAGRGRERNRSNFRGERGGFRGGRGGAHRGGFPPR

In the case of `CNc1cc(N2CCCC(O)(CNC(=O)c3ccc(CN4CCCCC4)cc3)C2)ncn1` (stereo not shown) [compound 1], the half-maximal inhibitory concentration (IC50) under setting [1] was 430 µM. In the case of `CNc1cc(N2CCCC(O)(CNC(=O)c3ccc(CN4CCC(C)CC4)cc3)C2)ncn1` (stereo not shown) [compound 3], the IC50 under setting [1] was found to be 16 µM. In the case of `CNc1cc(N2CCCC(O)(CNC(=O)c3ccc(CN4CCC(C)(C)CC4)cc3)C2)ncn1` (stereo not shown) [compound 4], the IC50 under setting [1] was 8.2 µM. For the same compound, the “fold improvement in affinity (IC50) vs compound 1” value (relative to hit compound 1) is 50 fold and 52.4 fold. Take `CNc1cc(N2CCCC(O)(CNC(=O)c3ccc(CN4CCNCC4)cc3)C2)ncn1` (stereo not shown) [compound 5]: under setting [1], the IC50 was determined as 179 µM.

Regarding `CCC1CCN(Cc2ccc(C(=O)NCC3(O)CCCN(c4cc(NC)ncn4)C3)cc2)CC1` (stereo not shown) [compound 6], the IC50 under setting [1] amounted to 230 µM. Still for that read-out and setting: the same measure for `CNc1cc(N2CCCC(O)(CNC(=O)c3ccc(CN4CCC(C)(N)CC4)cc3)C2)ncn1` (stereo not shown) [compound 7]: 42 µM; for `CNc1cc(N2CCCC(O)(CNC(=O)c3ccc(CN4CCC(C)(CN)CC4)cc3)C2)ncn1` (stereo not shown) [compound 8]: 32 µM. With `CC1(C)CCN(Cc2ccc(C(=O)NCC3(O)CCCN(c4cc(NCc5cccc6nc[nH]c56)ncn4)C3)cc2)CC1` (stereo not shown) [compound 9], under setting [1], the IC50 is 2.1 µM. Regarding `CC1(C)CCN(Cc2ccc(C(=O)NCC3(O)CCCN(c4cc(NCc5cccc6sccc56)ncn4)C3)cc2)CC1` (stereo not shown) [compound 10], the “fold improvement in affinity (IC50) vs compound 4” value (“fold improvement … vs compound 4” for short) was 10 fold. For the same compound, the concentration for half-maximal inhibition (IC50) under setting [1] was found to be 0.82 µM. For `CC1(C)CCN(Cc2ccc(C(=O)NCC3(O)CCCN(c4cc(NCc5ccoc5)ncn4)C3)cc2)CC1` (stereo not shown) [compound 11], the IC50 under setting [1] was over 10 µM. Regarding `CC1(C)CCN(Cc2ccc(C(=O)NCC3(O)CCCN(c4cc(NCc5ccsc5)ncn4)C3)cc2)CC1` (stereo not shown) [compound 12], the IC50 under setting [1] is 1.8 µM. Same read-out and setting: under `CC(Nc1cc(N2CCCC(O)(CNC(=O)c3ccc(CN4CCC(C)(C)CC4)cc3)C2)ncn1)c1ccccc1` (stereo not shown) [compound 13] stands 12 µM. Regarding `CC1(C)CCN(Cc2ccc(C(=O)NCC3(O)CCCN(c4cc(NC(C)(C)c5ccccc5)ncn4)C3)cc2)CC1` (stereo not shown) [compound 14], under setting [1], the IC50 came to 31 µM. Regarding `CC1(C)CCN(Cc2ccc(C(=O)NCC3(O)CCCN(c4cc(NCc5cccc6ccccc56)ncn4)C3)cc2)CC1` (stereo not shown) [compound 15], the “fold improvement … vs compound 4” value was 10 fold. The 50% inhibitory concentration (IC50) under setting [1] came to 0.77 µM.

With `CC1(C)CCN(Cc2ccc(C(=O)NCC3(O)CCCN(c4cc(NCc5ccccc5)ncn4)C3)cc2)CC1` (stereo not shown) [compound 16], the “S/R Ratio” value is 5.9 and the “fold improvement … vs compound 4” value worked out at 4.8 fold. Moreover, under setting [2], the IC50 amounted to 1.2 µM. For the same compound, under setting [3], the concentration for half-maximal inhibition (IC50) amounted to 7.1 µM. Further, the IC50 under setting [1] was 1.7 µM. For the same compound, the “fold difference in activity between R and S configurations” value (R more active than S) was about 6 fold. In the case of `O=C(NCC1(O)CCCN(c2cc(NCc3ccccc3)ncn2)C1)c1ccc(CN2CCC3(CC2)CC3)cc1` (stereo not shown) [compound 17], the concentration for half-maximal inhibition (IC50) under setting [1] came out at 3.3 µM.

For `CCC1(C)CCN(Cc2ccc(C(=O)NCC3(O)CCCN(c4cc(NCc5ccccc5)ncn4)C3)cc2)CC1` (stereo not shown) [compound 18], under setting [1], the IC50 is 4.7 µM.

`CCCCC1(C)CCN(Cc2ccc(C(=O)NCC3(O)CCCN(c4cc(NCc5ccccc5)ncn4)C3)cc2)CC1` (stereo not shown) [compound 19]: the concentration for half-maximal inhibition (IC50) under setting [1] was 5.5 µM. On the same count and under the same terms, the same measure for `CC1(CCO)CCN(Cc2ccc(C(=O)NCC3(O)CCCN(c4cc(NCc5ccccc5)ncn4)C3)cc2)CC1` (stereo not shown) [compound 20]: 17.6 µM. Take `CC(F)C1CCN(Cc2ccc(C(=O)NCC3(O)CCCN(c4cc(NCc5ccccc5)ncn4)C3)cc2)CC1` (stereo not shown) [compound 21]: the IC50 under setting [1] amounted to 23 µM. Same read-out and setting: under `CC1(F)CC12CCN(Cc1ccc(C(=O)NCC3(O)CCCN(c4cc(NCc5ccccc5)ncn4)C3)cc1)CC2` (stereo not shown) [compound 22] stands 23 µM; under `CC(C)C1(O)CN(Cc2ccc(C(=O)NCC3(O)CCCN(c4cc(NCc5ccccc5)ncn4)C3)cc2)C1` (stereo not shown) [compound 23], 15 µM. Still for that read-out and setting: the same measure for `CC1(O)CCN(Cc2ccc(C(=O)NCC3(O)CCCN(c4cc(NCc5ccccc5)ncn4)C3)cc2)CC1` (stereo not shown) [compound 24]: 8.4 µM; for `CCCCN(Cc1ccc(C(=O)NCC2(O)CCCN(c3cc(NCc4ccccc4)ncn3)C2)cc1)C1CCCCC1` (stereo not shown) [compound 26]: over 10 µM; for `CC1(C)CN(Cc2ccc(C(=O)NCC3(O)CCCN(c4cc(NCc5ccccc5)ncn4)C3)cc2)C1` (stereo not shown) [compound 27]: 9.3 µM. The same measure, in the same setting: the same measure for `CCC(CC)CNCc1ccc(C(=O)NCC2(O)CCCN(c3cc(NCc4ccccc4)ncn3)C2)cc1` (stereo not shown) [compound 28]: 7.4 µM. Consider `O=C(NCC1(O)CCCN(c2cc(NCc3ccccc3)ncn2)C1)c1ccc(CN2CC3(CCC3)C2)cc1` (stereo not shown) [compound 29], for which the “S/R Ratio” value was 2.5. The IC50 under setting [2] stood at 0.53 µM. In addition, the concentration for half-maximal inhibition (IC50) under setting [3] is 1.3 µM. Also, the IC50 under setting [1] amounted to 1.6 µM. Take `CC(C)C1N(Cc2ccc(C(=O)NCC3(O)CCCN(c4cc(NCc5ccccc5)ncn4)C3)cc2)CC12CCC2` (stereo not shown) [compound 30]: the IC50 under setting [1] came out at 0.13 µM. On the same count and under the same terms, under `O=C(NCC1(O)CCCN(c2cc(NCc3ccccc3)ncn2)C1)c1ccc(CN2CC3(CCCC3)C2)cc1` (stereo not shown) [compound 32] stands 7.7 µM. On the same count and under the same terms, under `CC(C)CNCc1ccc(C(=O)NCC2(O)CCCN(c3cc(NCc4ccccc4)ncn3)C2)cc1` (stereo not shown) [compound 33] stands 5.1 µM; under `CC(C)CCNCc1ccc(C(=O)NCC2(O)CCCN(c3cc(NCc4ccccc4)ncn3)C2)cc1` (stereo not shown) [compound 34], 17.7 µM; under `CC(C)(C)CNCc1ccc(C(=O)NCC2(O)CCCN(c3cc(NCc4ccccc4)ncn3)C2)cc1` (stereo not shown) [compound 35], 5 µM. As to `O=C(NCC1(O)CCCN(c2cc(NCc3ccccc3)ncn2)C1)c1ccc(CNCC2CCC2)cc1` (stereo not shown) [compound 36], the concentration for half-maximal inhibition (IC50) under setting [1] came to 5.2 µM. Same read-out and setting: under `CCCN(Cc1ccc(C(=O)NCC2(O)CCCN(c3cc(NCc4ccccc4)ncn3)C2)cc1)C1CCCC1` (stereo not shown) [compound 37] stands over 10 µM; under `CCCN(Cc1ccc(C(=O)NCC2(O)CCCN(c3cc(NCc4ccccc4)ncn3)C2)cc1)C1CCCCC1` (stereo not shown) [compound 38], over 10 µM; under `CCCCN(Cc1ccc(C(=O)NCC2(O)CCCN(c3cc(NCc4ccccc4)ncn3)C2)cc1)C1CCCC1` (stereo not shown) [compound 39], over 10 µM. Still for that read-out and setting: the same measure for `O=C(NCC1(O)CCCN(c2cc(NCc3ccccc3)ncn2)C1)c1ccc(CN2CCCCC2)cc1` (stereo not shown) [compound 40]: 14 µM; for `CC1CCN(Cc2ccc(C(=O)NCC3(O)CCCN(c4cc(NCc5ccccc5)ncn4)C3)cc2)C2CCCCC12` (stereo not shown) [compound 41]: 12 µM. Still for that read-out and setting: under `O=C(NCC1(O)CCCN(c2cc(NCc3ccccc3)ncn2)C1)c1ccc(CN2CCCC3CCCCC32)cc1` (stereo not shown) [compound 42] stands 8.4 µM; under `CSc1cc(CN2CCC(C)(C)CC2)ccc1C(=O)NCC1(O)CCCN(c2cc(NCc3ccccc3)ncn2)C1` (stereo not shown) [compound 44], 1.1 µM; under `CC1(C)CCN(Cc2ccc(C(=O)NCC3(O)CCCN(c4cc(NCc5ccccc5)ncn4)C3)cn2)CC1` (stereo not shown) [compound 45], 10 µM. In the case of `CC1(C)CCN(Cc2ccc3c(NCC4(O)CCCN(c5cc(NCc6ccccc6)ncn5)C4)cccc3c2)CC1` (stereo not shown) [compound 46], the “S/R Ratio” value is reported as 60.0. For the same compound, the concentration for half-maximal inhibition (IC50) under setting [2] is 0.2 µM. The half-inhibitory concentration (IC50) under setting [3] is 12 µM. Besides, the concentration for half-maximal inhibition (IC50) under setting [1] is 0.36 µM. Further, the “fold improvement in affinity (IC50) vs compound 16” value (relative to reference compound 16) was 5 fold and 4.7 fold. Take `CC1(C)CCN(Cc2ccc3nc(CC4(O)CCCN(c5cc(NCc6ccccc6)ncn5)C4)[nH]c3c2)CC1` (stereo not shown) [compound 47]: the IC50 under setting [1] turned out to be 2.9 µM. As to `CC1(C)CCN(Cc2ccc(N3CC4(CCN(c5cc(NCc6ccccc6)ncn5)CC4)OCC3=O)cn2)CC1` [compound 48], under setting [1], the IC50 was 5.1 µM. On the same count and under the same terms, under `CC1(C)CCN(CCCCC(=O)NCC2(O)CCCN(c3cc(NCc4ccccc4)ncn3)C2)CC1` (stereo not shown) [compound 49] stands 60 µM. On the same count and under the same terms, the same measure for `CC(C)C1N(Cc2ccc(C(=O)NCC3(O)CCCN(c4cc(NCc5ccccc5)ncn4)C3)c(O)c2)CC12CCC2` (stereo not shown) [compound 50]: 0.27 µM; for `CNC(=O)c1cccc(CNc2cc(N3CCCC(O)(CNC(=O)c4ccc(CN5CCC(C)(C)CC5)cc4O)C3)ncn2)c1` (stereo not shown) [compound 51]: 0.19 µM. `CC1(C)CCN(Cc2ccc(C(=O)NCC3(O)CCCN(c4cc(NCc5cccc(S(N)(=O)=O)c5)ncn4)C3)c(O)c2)CC1` (stereo not shown) [compound 52]: under setting [1], the IC50 came to 0.3 µM. For the compound `O=C(NCC1(O)CCCN(c2cc(NCc3ccccc3)ncn2)C1)c1ccc(CN2CC3(CCC3)C2C2CC2)cc1O` (stereo not shown) [compound 53], the IC50 under setting [1] came to 0.84 µM.

The IC50 is the point on the concentration scale where inhibition reaches its midpoint.

These data come from PMC10436262, “Structure-Based Design of Inhibitors of the m^6A-RNA Writer Enzyme METTL3” (ACS Bio & Med Chem Au, 2023).
